The test system of test [1] is methicillin resistant Staphylococcus aureus (MRSA) biofilm. Conditions: approximate peptide concentration […] (around 3 μg/ml); compared to untreated samples. In short, it runs like this:
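Peptide was present from inoculation onward, with bacteria seeded at 1/100 from overnight cultures into BM2 biofilm medium or Luria Broth. Crystal violet staining of surface-attached cells (A595) quantified biofilm reduction at 22–46 h. K. pneumoniae was additionally screened in a real-time Bioflux flow device for some peptides.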

The subject of test [2] is human peripheral blood mononuclear cells (MCP-1). In words: SPOT-synthesized derivative screen: production of chemokine MCP-1. Format: cell-based. Conditions: Table 12, No LPS, human PBMC, peptide at ~18-24 μM; for MCP1: background subtracted 139 (HH2 derivatives), 170 (1018 derivatives), 242 (1002 and hybrid peptides) pg/ml. The gist of the method: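 MCP-1 was quantified by capture ELISA in cleared culture supernatants of treated human peripheral blood mononuclear cells. Cells came from heparinized volunteer blood via Ficoll gradient and were seeded at 0.75 to 1×10^6 cells/ml (37 °C, 5% CO2).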

Test [3] has as its system LPS-stimulated human peripheral blood mononuclear cells (IL1-β). It counts as cell-based. To be noted: Table 12, cells stimulated with 10 ng/ml LPS; for IL1β Production: LPS alone 1313 (HH2 derivatives), 1927 (1018 derivatives), 2455 (1002 and hybrid peptides) pg/ml.

Ends that are not written are not given here.

For the substance “HH2-W9: single substituted HH2 peptide (VQLRIRVAWIRA-NH2)”, the “% Biofilm inhibition” value in test [1] is listed as 75%. Further, in test [2], the “Fold increase in MCP1 cf. untreated cells” value (shortened to “Fold increase”) amounted to 31 and the “MCP1” value was 4995 pg/mL. For the same substance, in test [3], the “Fold change in IL1β relative to no peptide LPS stimulated cells” value is 0.80 and the “IL1β Production” value came to 1050 pg/mL.

With “HH2-V2: single substituted HH2 peptide (VVLRIRVAVIRA-NH2)”, the “% Biofilm inhibition” value in test [1] stood at 77%. For the same substance, in test [2], the “Fold increase” value was 24 and the “MCP1” value is 3945 pg/mL. For the same substance, in test [3], the “Fold change in IL1β relative to no peptide LPS stimulated cells” value amounted to 0.97 and the “IL1β Production” value is 1267 pg/mL.

For the substance “HH2-A11: single substituted HH2 peptide (VQLRIRVAVIAA-NH2)”, the “% Biofilm inhibition” value in test [1] is given as 64%. Moreover, in test [2], the “Fold increase” value stood at 5.9 and the “MCP1” value was 833 pg/mL. For the same substance, in test [3], the “Fold change in IL1β relative to no peptide LPS stimulated cells” value is 1.60 and the “IL1β Production” value was found to be 2105 pg/mL.

In the case of “1018-I10: single substituted 1018 peptide (VRLIVAVRIIRR-NH2) [Peptide 1018-I10]”, the “% Biofilm inhibition” value in test [1] is listed as 58%. In test [2], the “Fold increase” value came to 1.3 and the “MCP1” value is 56 pg/mL. In addition, in test [3], the “Fold change in IL1β relative to no peptide LPS stimulated cells” value came to 0.10 and the “IL1β Production” value was found to be 135 pg/mL.

With “HH2-G8: single substituted HH2 peptide (VQLRIRVGVIRA-NH2)”, in test [1], the “% Biofilm inhibition” value is listed as 54%. Further, in test [2], the “Fold increase” value is 1.9 and the “MCP1” value was 157 pg/mL. Further, in test [3], the “Fold change in IL1β relative to no peptide LPS stimulated cells” value turned out to be 1.02 and the “IL1β Production” value worked out at 1344 pg/mL.

Regarding “1018-I12: single substituted 1018 peptide (VRLIVAVRIWRI-NH2) [Peptide 1018-I12]”, the “% Biofilm inhibition” value in test [1] is on record as 57%. For the same substance, in test [2], the “Fold increase” value was determined as 19 and the “MCP1” value worked out at 3003 pg/mL. In test [3], the “Fold change in IL1β relative to no peptide LPS stimulated cells” value is 0.24 and the “IL1β Production” value came to 314 pg/mL.

In the case of “HH2-G2: single substituted HH2 peptide (VGLRIRVAVIRA-NH2)”, the “% Biofilm inhibition” value in test [1] is reported as 66%. For the same substance, in test [2], the “Fold increase” value amounted to 3.8 and the “MCP1” value is 471 pg/mL. Moreover, in test [3], the “Fold change in IL1β relative to no peptide LPS stimulated cells” value is reported as 1.07 and the “IL1β Production” value is 1400 pg/mL.

Turning to “HH2-R5: single substituted HH2 peptide (VQLRRRVAVIRA-NH2)”, the “% Biofilm inhibition” value in test [1] is given as 0%. Also, in test [2], the “Fold increase” value amounted to 4.0 and the “MCP1” value was 515 pg/mL. In test [3], the “Fold change in IL1β relative to no peptide LPS stimulated cells” value came out at 1.66 and the “IL1β Production” value came out at 2186 pg/mL.

Regarding “1002-K6: single substituted 1002 peptide (VQRWLKVWRIRK-NH2) [Peptide 1002-K6]”, the “% Biofilm inhibition” value in test [1] worked out at 2%. Also, in test [2], the “Fold increase” value was determined as 0.9 and the “MCP1” value was -36.2 pg/mL. In test [3], the “Fold change in IL1β relative to no peptide LPS stimulated cells” value is 0.33 and the “IL1β Production” value was 808 pg/mL.

In the case of “HH2-K12: single substituted HH2 peptide (VQLRIRVAVIRK-NH2)”, the “% Biofilm inhibition” value in test [1] is 67%. Also, in test [2], the “Fold increase” value amounted to 15 and the “MCP1” value is 2329 pg/mL. Moreover, in test [3], the “Fold change in IL1β relative to no peptide LPS stimulated cells” value was 0.92 and the “IL1β Production” value came to 1203 pg/mL.

For the substance “HH2-V10: single substituted HH2 peptide (VQLRIRVAVVRA-NH2)”, the “% Biofilm inhibition” value in test [1] amounted to 68%. In addition, in test [2], the “Fold increase” value amounted to 36 and the “MCP1” value came to 5929 pg/mL. For the same substance, in test [3], the “Fold change in IL1β relative to no peptide LPS stimulated cells” value is 1.06 and the “IL1β Production” value was found to be 1390 pg/mL.

Take “1002-A11: single substituted 1002 peptide (VQRWLIVWRIAK-NH2) [Peptide 1002-A11]”: the “% Biofilm inhibition” value in test [1] worked out at 52%. Besides, in test [2], the “Fold increase” value worked out at 3.0 and the “MCP1” value is 485.3 pg/mL. In test [3], the “Fold change in IL1β relative to no peptide LPS stimulated cells” value is 0.05 and the “IL1β Production” value came to 127 pg/mL.

For “HH2-L1: single substituted HH2 peptide (LQLRIRVAVIRA-NH2)”, the “% Biofilm inhibition” value in test [1] worked out at 72%. Moreover, in test [2], the “Fold increase” value was found to be 4.8 and the “MCP1” value amounted to 654 pg/mL. Besides, in test [3], the “Fold change in IL1β relative to no peptide LPS stimulated cells” value was 0.94 and the “IL1β Production” value is 1234 pg/mL.

With “1018-A7: single substituted 1018 peptide (VRLIVAARIWRR-NH2) [Peptide 1018-A7]”, the “% Biofilm inhibition” value in test [1] came to 52%. Also, in test [2], the “Fold increase” value came to 0.5 and the “MCP1” value is -88 pg/mL. In test [3], the “Fold change in IL1β relative to no peptide LPS stimulated cells” value came to 0.68 and the “IL1β Production” value came to 891 pg/mL.

Consider “HH2-Q9: single substituted HH2 peptide (VQLRIRVAQIRA-NH2)”, for which, in test [1], the “% Biofilm inhibition” value was 43%. Also, in test [2], the “Fold increase” value is 34 and the “MCP1” value stood at 5588 pg/mL. Moreover, in test [3], the “Fold change in IL1β relative to no peptide LPS stimulated cells” value is on record as 1.01 and the “IL1β Production” value turned out to be 1321 pg/mL.

On to “1002-K8: single substituted 1002 peptide (VQRWLIVKRIRK-NH2) [Peptide 1002-K8]”, for which the “% Biofilm inhibition” value in test [1] is 0%. For the same substance, in test [2], the “Fold increase” value worked out at 0.9 and the “MCP1” value is -36.2 pg/mL. In addition, in test [3], the “Fold change in IL1β relative to no peptide LPS stimulated cells” value is recorded as 0.66 and the “IL1β Production” value came out at 1632 pg/mL.

In the case of “1018-V10: single substituted 1018 peptide (VRLIVAVRIVRR-NH2) [Peptide 1018-V10]”, in test [1], the “% Biofilm inhibition” value is reported as 50%. For the same substance, in test [2], the “Fold increase” value was found to be 1.2 and the “MCP1” value came to 29 pg/mL. Moreover, in test [3], the “Fold change in IL1β relative to no peptide LPS stimulated cells” value came out at 0.28 and the “IL1β Production” value is 370 pg/mL.

On to “HH2-K2: single substituted HH2 peptide (VKLRIRVAVIRA-NH2)”, for which the “% Biofilm inhibition” value in test [1] amounted to 69%. Moreover, in test [2], the “Fold increase” value turned out to be 7.9 and the “MCP1” value turned out to be 1168 pg/mL. Moreover, in test [3], the “Fold change in IL1β relative to no peptide LPS stimulated cells” value is given as 0.71 and the “IL1β Production” value was found to be 937 pg/mL.

Consider “1002-I3: single substituted 1002 peptide (VQIWLIVWRIRK-NH2) [Peptide 1002-I3]”, for which the “% Biofilm inhibition” value in test [1] worked out at 62%. Also, in test [2], the “Fold increase” value is 13.2 and the “MCP1” value turned out to be 2953.7 pg/mL. Besides, in test [3], the “Fold change in IL1β relative to no peptide LPS stimulated cells” value was determined as 0.05 and the “IL1β Production” value amounted to 127 pg/mL.

As for “1018-A8: single substituted 1018 peptide (VRLIVAVAIWRR-NH2) [Peptide 1018-A8]”, the “% Biofilm inhibition” value in test [1] stood at 60%. Also, in test [2], the “Fold increase” value was 3.7 and the “MCP1” value stood at 460 pg/mL. Further, in test [3], the “Fold change in IL1β relative to no peptide LPS stimulated cells” value stood at 0.10 and the “IL1β Production” value was 127 pg/mL.

Turning to “1002-Q6: single substituted 1002 peptide (VQRWLQVWRIRK-NH2) [Peptide 1002-Q6]”, in test [1], the “% Biofilm inhibition” value is 22%. In test [2], the “Fold increase” value came out at 0.9 and the “MCP1” value is -36.2 pg/mL. In test [3], the “Fold change in IL1β relative to no peptide LPS stimulated cells” value is given as 0.35 and the “IL1β Production” value turned out to be 859 pg/mL.

Turning to “1002-V3: single substituted 1002 peptide (VQVWLIVWRIRK-NH2) [Peptide 1002-V3]”, in test [1], the “% Biofilm inhibition” value was 49%. Moreover, in test [2], the “Fold increase” value is reported as 2.5 and the “MCP1” value was determined as 359.1 pg/mL. Further, in test [3], the “Fold change in IL1β relative to no peptide LPS stimulated cells” value came out at 0.05 and the “IL1β Production” value was 127 pg/mL.

On to “1002-G3: single substituted 1002 peptide (VQGWLIVWRIRK-NH2) [Peptide 1002-G3]”, for which the “% Biofilm inhibition” value in test [1] is 56%. In test [2], the “Fold increase” value amounted to 14.0 and the “MCP1” value amounted to 3157.8 pg/mL. Besides, in test [3], the “Fold change in IL1β relative to no peptide LPS stimulated cells” value worked out at 0.05 and the “IL1β Production” value was 127 pg/mL.

In the case of “1018-Q9: single substituted 1018 peptide (VRLIVAVRQWRR-NH2) [Peptide 1018-Q9]”, in test [1], the “% Biofilm inhibition” value was determined as 38%. In addition, in test [2], the “Fold increase” value is 0.8 and the “MCP1” value was -28 pg/mL. For the same substance, in test [3], the “Fold change in IL1β relative to no peptide LPS stimulated cells” value was 1.00 and the “IL1β Production” value was 1313 pg/mL.

With “HH2-W3: single substituted HH2 peptide (VQWRIRVAVIRA-NH2)”, in test [1], the “% Biofilm inhibition” value worked out at 62%. In addition, in test [2], the “Fold increase” value amounted to 21 and the “MCP1” value was found to be 3418 pg/mL. For the same substance, in test [3], the “Fold change in IL1β relative to no peptide LPS stimulated cells” value is listed as 0.67 and the “IL1β Production” value amounted to 874 pg/mL.

Source of the values: patent publication US20190315823A1, “SMALL CATIONIC ANTI-BIOFILM AND IDR PEPTIDES” (priority 2013, published 2019).
